Test results taken from ChEMBL document CHEMBL3885861, “Open TG-GATES”.

Organism: Rattus norvegicus
Assay: Open TG-GATES - Regimen: Single
Format: toxicity, organism-based, Sprague-Dawley
Set-up: regimen Single, gender Male, age 6 weeks
Conditions: in vivo, po, route gavage; for APTT / Bas / Eos / Fbg / Hb / Ht / Lym / MCH / MCHC / MCV / Mono / Neu / PT / Plat / RBC / Ret / WBC: tissue Blood; for KIDNEY_L / KIDNEY_R / KIDNEY_TOTAL: tissue Kidney; for LIVER: tissue Liver; for ALP / ALT / AST / BUN / CRE / Ca / DBIL / GLC / K / LDH / Na / PL / RALB / TBIL / TC / TG / TP / gamma-GTP / IP: tissue Plasma
[1] = 0 mg/kg, 3 h, dose level Control
[2] = 0 mg/kg, 6 h, dose level Control
[3] = 0 mg/kg, 9 h, dose level Control
[4] = 0 mg/kg, 24 h, dose level Control

Oc1ncnc2[nH]ncc12 [ALLOPURINOL]
TERMINAL_BW [1]: 209.8 g | APTT [1]: 16.7 s | Bas [1]: 0% | Eos [1]: 0.8% | Fbg [1]: 211 mg/dL | Hb [1]: 14 g/dL | Ht [1]: 41.7% | Lym [1]: 73.2% | MCH [1]: 21.9 pg | MCHC [1]: 33.7% | MCV [1]: 65.1 fL | Mono [1]: 7.4% | Neu [1]: 18.6% | PT [1]: 12.3 s | Plat [1]: 111.5 x10_4/uL | RBC [1]: 641.2 x10_4/ul | Ret [1]: 8.1% | WBC [1]: 95.8 x10_2/uL | KIDNEY_L [1]: 1 g | KIDNEY_R [1]: 1 g | KIDNEY_TOTAL [1]: 1.9 g | LIVER [1]: 10.1 g | ALP [1]: 925 IU/L | ALT [1]: 30.8 IU/L | AST [1]: 60 IU/L | BUN [1]: 12 mg/dL | CRE [1]: 0.5 mg/dL | Ca [1]: 10.9 mg/dL | DBIL [1]: 0.058 mg/dL | GLC [1]: 189.4 mg/dL | K [1]: 4.8 meq/L | LDH [1]: 96.6 IU/L | Na [1]: 139.2 meq/L | PL [1]: 137.4 mg/dL | RALB [1]: 3.7 g/dL | TBIL [1]: 0.4 mg/dL | TC [1]: 71.8 mg/dL | TG [1]: 59.4 mg/dL | TP [1]: 5.6 g/dL | gamma-GTP [1]: 1.4 IU/L | TERMINAL_BW [2]: 210 g | APTT [2]: 16.3 s | Bas [2]: 0% | Eos [2]: 1% | Fbg [2]: 212.6 mg/dL | Hb [2]: 14.1 g/dL | Ht [2]: 42% | Lym [2]: 80% | MCH [2]: 22.2 pg | MCHC [2]: 33.4% | MCV [2]: 66.3 fL | Mono [2]: 5.6% | Neu [2]: 13.6% | PT [2]: 12.3 s | Plat [2]: 111.5 x10_4/uL | RBC [2]: 634 x10_4/ul | Ret [2]: 8.2% | WBC [2]: 98.8 x10_2/uL | KIDNEY_L [2]: 0.9 g | KIDNEY_R [2]: 0.9 g | KIDNEY_TOTAL [2]: 1.8 g | LIVER [2]: 9.5 g | ALP [2]: 787 IU/L | ALT [2]: 31.8 IU/L | AST [2]: 62.2 IU/L | BUN [2]: 11.2 mg/dL | CRE [2]: 0.4 mg/dL | Ca [2]: 11.1 mg/dL | DBIL [2]: 0.032 mg/dL | GLC [2]: 185.4 mg/dL | K [2]: 5 meq/L | LDH [2]: 96.6 IU/L | Na [2]: 139 meq/L | PL [2]: 132 mg/dL | RALB [2]: 3.8 g/dL | TBIL [2]: 0.3 mg/dL | TC [2]: 71.8 mg/dL | TG [2]: 54.4 mg/dL | TP [2]: 5.6 g/dL | gamma-GTP [2]: 0.8 IU/L | TERMINAL_BW [3]: 204.6 g | APTT [3]: 16.6 s | Bas [3]: 0% | Eos [3]: 1% | Fbg [3]: 221.2 mg/dL | Hb [3]: 13.8 g/dL | Ht [3]: 41.1% | Lym [3]: 71.4% | MCH [3]: 21.8 pg | MCHC [3]: 33.7% | MCV [3]: 64.8 fL | Mono [3]: 9.6% | Neu [3]: 18% | PT [3]: 12.3 s | RBC [3]: 633.4 x10_4/ul | Ret [3]: 7.5% | WBC [3]: 81.8 x10_2/uL | KIDNEY_L [3]: 0.9 g | KIDNEY_R [3]: 0.9 g | KIDNEY_TOTAL [3]: 1.9 g | LIVER [3]: 9 g | ALP [3]: 761 IU/L | ALT [3]: 28.6 IU/L | AST [3]: 61.2 IU/L | BUN [3]: 12.4 mg/dL | CRE [3]: 0.4 mg/dL | DBIL [3]: 0.018 mg/dL | GLC [3]: 197.8 mg/dL | IP [3]: 11.2 mg/dL | K [3]: 4.7 meq/L | Na [3]: 139.2 meq/L | PL [3]: 136.4 mg/dL | RALB [3]: 3.8 g/dL | TBIL [3]: 0.4 mg/dL | TC [3]: 73 mg/dL | TG [3]: 48 mg/dL | TP [3]: 5.7 g/dL | gamma-GTP [3]: 1.2 IU/L | TERMINAL_BW [4]: 223.3 g | APTT [4]: 16.3 s | Bas [4]: 0.2% | Eos [4]: 0.8% | Fbg [4]: 219 mg/dL | Hb [4]: 13.4 g/dL | Ht [4]: 39.8% | Lym [4]: 72% | MCH [4]: 21.8 pg | MCHC [4]: 33.6% | MCV [4]: 65 fL | Mono [4]: 12.4% | Neu [4]: 14.8% | PT [4]: 12 s | Plat [4]: 110.8 x10_4/uL | RBC [4]: 613.4 x10_4/ul | Ret [4]: 8.1% | WBC [4]: 97 x10_2/uL | KIDNEY_L [4]: 1 g | KIDNEY_R [4]: 1 g | KIDNEY_TOTAL [4]: 2 g | ALP [4]: 987.2 IU/L | ALT [4]: 31.2 IU/L | AST [4]: 63.4 IU/L | BUN [4]: 18 mg/dL | CRE [4]: 0.5 mg/dL | DBIL [4]: 0.02 mg/dL | GLC [4]: 193.2 mg/dL | IP [4]: 8.4 mg/dL | K [4]: 5.1 meq/L | LDH [4]: 94 IU/L | Na [4]: 138 meq/L | PL [4]: 153.4 mg/dL | RALB [4]: 3.8 g/dL | TBIL [4]: 0.3 mg/dL | TC [4]: 81.6 mg/dL | TG [4]: 99 mg/dL | TP [4]: 5.7 g/dL | gamma-GTP [4]: 1.2 IU/L | TERMINAL_BW (15 mg/kg, 3 h, dose level Low): 213.7 g
